Measurements as given in patent US7514428B2, “Pesticidal 1-aryl-3-amidoxime-pyrazole derivatives” (Merial Limited, priority 2002, dated 2009).

Test system: Ctenocephalides felis, Diabrotica undecimpunctata, Nephotettix cincticeps, Rhipicephalus sanguineus
Assay: Parasiticidal and pesticidal tests, Methods A to E taken together (active in one or more of the tests, test not specified)
Format: in vivo
Details: active = at least 90% control (A, 5 ppm or less), 90% (B, 10 ppm), 98% mortality (C, 100 ppm), 70% (D, 1000 ppm) or 70% (E, 100 ppm); test not given per compound
Experimental: The following representative test procedures, using compounds of the invention, were conducted to determine the parasiticidal and pesticidal activity of compounds of the invention.
Method A: Screening Method to Test Systemicity of Compounds Against Ctenocephalides Felis (Cat Flea)
A test container was filled with 10 adults of Ctenocephalides felis. A glass cylinder was closed on one end with parafilm and placed on top of the test container. The test compound solution was then pipetted into bovine blood and added to the glass cylinder. The treated Ctenocephalides felis were held in this artificial dog test (blood 37° C., 40-60% relative humidity; Ctenocephalides felis 20-22° C., 40-60% relative humidity) and assessment performed at 24 and 48 hours after application.
Active compounds gave at least 90% control of Ctenocephalides felis at a test concentration of 5 ppm or less.
Method B: Diabrotica Undecimpunctata (Southern Corn Rootworm) Screen
Two days before application, seeds of maize were soaked in water under warm conditions to elicit fast germination. One day before application, eggs of Diabrotica undecimpunctata were transferred to one half of a Japanese filter paper placed in a plastic petri dish. Afterwards, a sprouted maize seed was placed on a moistened pad beside the filter paper. Three drops of 200 microlitres of test compound solution were carefully pipetted onto the egg. The remainder of the solution was placed on the maize and then the Petri dish was closed. The treated eggs in the Petri dishes were held in a climate chamber for 6 days. The compound efficacy (percentage of dead eggs and/or larvae in comparison to untreated control) was assessed 6 days after application using a binocular microscope. […]
The leaves of 12 rice plants having a stem length of 8 cm were dipped for 5 seconds into an aqueous solution of the formulated test compound. […] After 6 days storage, the percentage mortality of leafhopper larvae was determined. […]
Solutions of the test compounds were dropped onto filter paper, dried and the filter paper placed into test tubes and infested with 10 adults of Ctenocephalides felis. The treated Ctenocephalides felis were held in a climate chamber (26° C., 80% RH) and the percentage efficacy assessed 24 hours and 48 hours after application in comparison with the untreated control. […]
Solutions of the test compounds were dropped onto filter paper, dried and the filter paper placed into test tubes and infested with 20-30 larvae (L1) of Rhipicephalus sanguineus and the tubes closed with a clip. The treated Rhipicephalus sanguineus were held in a climate chamber (25° C., 90% RH) and the percentage efficacy assessed 24 hours after application in comparison with the untreated control. […]

| SMILES | active in one or more of the above tests |
| --- | --- |
| CNc1c([S+]([O-])C(F)(F)F)c(C(=N)N(C)OCc2c(Cl)cccc2Cl)nn1-c1c(Cl)cc(C(F)(F)F)cc1Cl (stereo not shown) [Compound 4-82, 1-(2,6-Dichloro-4-trifluoromethylphenyl)-3-[N-(2,6-dichlorobenzyloxy)-N-methyl-2-amidino]-5-methylamino-4-trifluoromethylsulfinylpyrazole] | active |
| CNc1c([S+]([O-])C(F)(F)F)c(C(=N)N(C)OCc2ccc(C(F)(F)F)cc2)nn1-c1c(Cl)cc(C(F)(F)F)cc1Cl (stereo not shown) [Compound 4-93, 1-(2,6-Dichloro-4-trifluoromethylphenyl)-3-[N-methyl-N-(4-trifluoromethylbenzyloxy)-2-amidino]-5-methylamino-4-trifluoromethylsulfinylpyrazole] | active |
| CNc1c(S(=O)(=O)C(F)(F)F)c(C(=N)N(C)OCc2ccc(C(F)(F)F)cc2)nn1-c1c(Cl)cc(C(F)(F)F)cc1Cl [Compound 4-128, 1-(2,6-Dichloro-4-trifluoromethylphenyl)-3-[N-methyl-N-(4-trifluoromethylbenzyloxy)-2-amidino]-5-methylamino-4-trifluoromethylsulfonylpyrazole] | active |
| CNc1c(S(=O)(=O)C(F)(F)F)c(C(N)=NOCc2ccccc2)nn1-c1c(Cl)cc(C(F)(F)F)cc1Cl [Compound 1-49, 1-(2,6-Dichloro-4-trifluoromethylphenyl)-3-(N-benzyloxy-2-amidino)-5-methylamino-4-trifluoromethylsulfonylpyrazole] | active |
